Laboratory results published in ChEMBL document CHEMBL4354870, “GSK2818713, a Novel Biphenylene Scaffold-Based Hepatitis C NS5A Replication Complex Inhibitor with Broad Genotype Coverage” (J Med Chem, 2020).
Active and inactive are the calls of the source. The rule behind the calls is not given here.

Legend:
Type in all cases: cell-based
[1] = target: T1, Nonstructural protein 5A (Hepatitis C virus) (UniProt Q5L478); experiment: Potency index, ratio of EC50 of cpd1 to EC50 of compound for inhibition of HCV genotype 2a con NS5A infected in HuH-Lcu-Neo cells assessed as reduction in viral replication incubated for 48 hrs by luciferase reporter gene assay; settings: Hepatitis C virus subtype 2a
T1 sequence (whole entry): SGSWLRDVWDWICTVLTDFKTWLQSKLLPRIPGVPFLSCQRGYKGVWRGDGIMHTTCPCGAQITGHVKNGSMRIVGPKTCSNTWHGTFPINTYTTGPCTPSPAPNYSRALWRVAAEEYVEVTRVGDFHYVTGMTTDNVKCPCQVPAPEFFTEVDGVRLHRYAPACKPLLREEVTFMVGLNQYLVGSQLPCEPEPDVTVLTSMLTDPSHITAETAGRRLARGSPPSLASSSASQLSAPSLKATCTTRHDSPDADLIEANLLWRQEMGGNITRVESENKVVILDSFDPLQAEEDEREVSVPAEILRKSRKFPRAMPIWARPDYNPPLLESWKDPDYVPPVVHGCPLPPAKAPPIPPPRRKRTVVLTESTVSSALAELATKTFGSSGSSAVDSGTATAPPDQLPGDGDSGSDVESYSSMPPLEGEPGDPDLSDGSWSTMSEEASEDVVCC

[2] = target: T1, Nonstructural protein 5A (Hepatitis C virus); experiment: Inhibition of HCV NS5A infected in HuH-Lcu-Neo cells assessed as reduction in viral replication in presence of ribavirin incubated for 48 hrs by luciferase reporter gene assay; settings: Hepacivirus hominis
[3] = target: T1, Nonstructural protein 5A (Hepatitis C virus); experiment: Inhibition of HCV genotype 1b NS5A infected in HuH-Lcu-Neo cells assessed as log reduction in virus RNA level at 10 times of EC90 incubated for 21 days by luciferase reporter gene assay; settings: Hepatitis C virus subtype 1b
[4] = target: T1, Nonstructural protein 5A (Hepatitis C virus); experiment: Potency index, ratio of EC50 of DCV to EC50 of compound for inhibition of HCV genotype 2a con NS5A infected in HuH-Lcu-Neo cells assessed as reduction in viral replication incubated for 48 hrs by luciferase reporter gene assay; settings: Hepatitis C virus subtype 2a
[5] = target: T1, Nonstructural protein 5A (Hepatitis C virus); experiment: Potency index, ratio of EC50 of DCV to EC50 of compound for inhibition of patient-derived HCV genotype 3a NS5A infected in HuH-Lcu-Neo cells assessed as reduction in viral replication incubated for 48 hrs by luciferase reporter gene assay; settings: Hepatitis C virus subtype 3a
[6] = target: T1, Nonstructural protein 5A (Hepatitis C virus); experiment: Inhibition of HCV genotype 2a con NS5A infected in HuH-Lcu-Neo cells assessed as fold reduction in virus RNA level at 10 times of EC90 incubated for 21 days by luciferase reporter gene assay; settings: Hepatitis C virus subtype 2a
[7] = target: T1, Nonstructural protein 5A (Hepatitis C virus); experiment: Potency index, ratio of EC50 of DCV to EC50 of compound for inhibition of patient-derived HCV genotype 2a NS5A infected in HuH-Lcu-Neo cells assessed as reduction in viral replication incubated for 48 hrs by luciferase reporter gene assay; settings: Hepatitis C virus subtype 2a
[8] = target: T1, Nonstructural protein 5A (Hepatitis C virus); experiment: Inhibition of HCV genotype 3a con NS5A infected in HuH-Lcu-Neo cells assessed as fold reduction in virus RNA level at 10 times of EC90 incubated for 21 days by luciferase reporter gene assay; settings: Hepatitis C virus subtype 3a
[9] = target: T1, Nonstructural protein 5A (Hepatitis C virus); experiment: Inhibition of HCV NS5A infected in HuH-Lcu-Neo cells assessed as reduction in viral replication in presence of NM107 incubated for 48 hrs by luciferase reporter gene assay; settings: Hepacivirus hominis
[10] = target: T1, Nonstructural protein 5A (Hepatitis C virus); experiment: Potency index, ratio of EC50 of DCV to EC50 of compound for inhibition of HCV genotype 3a con NS5A infected in HuH-Lcu-Neo cells assessed as reduction in viral replication incubated for 48 hrs by luciferase reporter gene assay; settings: Hepatitis C virus subtype 3a
[11] = target: T1, Nonstructural protein 5A (Hepatitis C virus); experiment: Inhibition of HCV NS5A infected in HuH-Lcu-Neo cells assessed as reduction in viral replication in presence of NNI incubated for 48 hrs by luciferase reporter gene assay; settings: Hepacivirus hominis
[12] = target: T1, Nonstructural protein 5A (Hepatitis C virus); experiment: Inhibition of HCV NS5A infected in HuH-Lcu-Neo cells assessed as reduction in viral replication in presence of BILN2061 incubated for 48 hrs by luciferase reporter gene assay; settings: Hepacivirus hominis
[13] = target: T1, Nonstructural protein 5A (Hepatitis C virus); experiment: Inhibition of HCV genotype 1a NS5A infected in HuH-Lcu-Neo cells assessed as log reduction in virus RNA level at 10 times of EC90 incubated for 21 days by luciferase reporter gene assay; settings: Hepatitis C virus subtype 1a

| Compound | Ratio EC50 [1] | inhibition [2] | FC [3] | Ratio EC50 [4] | Ratio EC50 [5] | fold change (FC) [6] | Ratio EC50 [7] | fold change (FC) [8] | inhibition [9] | Ratio EC50 [10] | inhibition [11] | inhibition [12] | FC [13] |
| --- | --- | --- | --- | --- | --- | --- | --- | --- | --- | --- | --- | --- | --- |
| CN(C)[C@@H](C(=O)N1CCC[C@H]1c1ncc(-c2ccc3c(c2)-c2ccc(-c4cnc([C@@H]5CCCN5C(=O)[C@@H](c5ccccc5)N(C)C)[nH]4)cc2-3)[nH]1)c1ccccc1 | 98 | – | – | – | – | – | – | – | – | – | – | – | – |
| COC(=O)N[C@H](C(=O)N1CCC[C@H]1c1ncc(-c2ccc3c(c2)-c2ccc(-c4cnc([C@@H]5CCCN5C(=O)[C@@H](c5ccccc5)N(C)C)[nH]4)cc2-3)[nH]1)C(C)C | 22 | – | – | – | – | – | – | – | – | – | – | – | – |
| COC(=O)N[C@H](C(=O)N1[C@H](c2ncc(-c3ccc4c(c3)-c3ccc(-c5cnc([C@@H]6C[C@@H]7CCC[C@@H]7N6C(=O)[C@@H](NC(=O)OC)[C@@H](C)OC)[nH]5)cc3-4)[nH]2)C[C@@H]2CCC[C@@H]21)[C@@H](C)OC | – | inactive | > 5 | 462 | 37 | 1.8 to 3.1 | 74 | 1.8 to 3.1 | inactive | 20 | inactive | inactive | 1.8 to 3.1 |
